Experimental data published in patent US6740335B1, “Liposomal camptothecin formulations” (priority 1997, dated 2004).
Where a name gives a salt, the structure may show the parent alone. Read-outs that look alike come from different tables or passages of the source.

Columns and labels:
[1] = system: U251 (Glioblastoma); test: 3H-thymidine incorporation cytotoxicity assay, U251; format: cell-based, human; settings: Homo sapiens, U-251; U251, 24 h; read-out: Median IC50
Method: (§1) In vitro efficacy screening has been performed using GI147211 and liposomal formulations of GI147211. […] Standard tumor cell-based cytototoxicity assays assessing ^3H-thymidine incorporation were performed.
(§2) Tumor cells were seeded into 96-well tissue culture plates (1×10^4 cells/well)≡4 h prior to experimentation. […] Positive and negative (Tris treated) control groups were included on each assay plate. Tumor cells were then labeled with 0.25 μCi of [methyl-^3H] thymidine and incubated for 42 h under tissue culture conditions (37° C., 5% CO2, 100% relative humidity), except for C6, U251, A673 and B16-F1 cells which were incubated for 24 h. Cells were then lysed, harvested onto glass-fiber filters and unincorporated [methyl-^3H] thymidine removed by filter washing. Filters were processed for scintillation counting and cpm-^3H/well determined. […] Data are presented from multiple sets of experimentation, involving multiple liposomal formulations of GI147211.

[2] = system: BT-20 (Breast); test: 3H-thymidine incorporation cytotoxicity assay, BT-20; format: cell-based, human; settings: Homo sapiens, BT-20, 42 h; read-out: Median IC50
Method: as §1, §2

[3] = system: U87-MG (Astrocytoma); test: 3H-thymidine incorporation cytotoxicity assay, U87-MG; format: cell-based, human; settings: Homo sapiens, U-87 MG, 42 h, read-out: Median IC50
Method: as §1, §2

[4] = system: B16-F1 (Melanoma, murine); test: 3H-thymidine incorporation cytotoxicity assay, B16-F1; format: cell-based; settings: Mus musculus, B16-F1, 24 h; read-out: Median IC50
Method: as §1, §2

[5] = system: DU-145 (prostate carcinoma); test: 3H-thymidine incorporation cytotoxicity assay, DU-145; format: cell-based, human; settings: Homo sapiens, DU-145, 42 h; read-out: Median IC50
Method: as §1, §2

[6] = system: KB Head/Neck Tumor; test: Xenograft efficacy at identical dose, KB; format: in vivo, nude mice; settings: for Log 10 Cell Kill / T-C (time to reach 1,000% Tumor Volume, treated vs control): QD7 × 3; for % TGI: QD7 × 3, day 22
Method: (§3) In all the studies performed, subcutaneous tumors implanted on the anterior flank of nude mice were allowed to grow to an established size of 200+/−50 mm^3 prior to dosing drugs.
(§4) The xenograft models included the HT29 and SW48 human colon tumor lines, and the KB and KBV head-neck tumors. Drugs were dosed at either 6 or 9 mg/kg intravenously, on a weekly schedule for 3 consecutive weeks. In the SW48 xenograft study, the animals received a total of two cycles of therapy (6 injections), with a 10 day recovery period separating the two therapeutic courses. In the HT29 xenograft study a 12 and 14 mg/kg dose group was added.

[7] = Precipitation of GI147211 with counterion excipients (HPLC of supernatant); format: physicochemical
Method: The excipients include, but are not limited to, the acid, sodium or ammonium forms of monovalent anions such as chloride, acetate, lactobionate and formnate; divalent anions such as succinate, aspartate and sulfate; and trivalent ions such as citrate and phosphate. To assess the relative degree of precipitation brought about with each excipient, 5 mg/ml solutions of GI147211 were prepared at low pH (2±0.5) and different counterions were added. The solutions of GI147211 and counterion were allowed to stand for 15 to 20 minutes, then centrifuiged at 3600 rpm for 10 minutes to isolate the precipitate. The quantity of GI147211 remaining in solution for each sample was then assessed by assaying the supernatants using HPLC with the following conditions: C18 ODS Hypersil column from Keystone, mobile phase of 30/70 (v/v) acetonitrile/0.1% acetic acid +0.1% aqueous triethylamine buffer, pH 3.30 with LTV detection at 270 nm. The amount of GI147211 precipitated was also tabulated by the taking the difference of the concentration of the remaining soluble fraction from Smg/ml, the original GI1147211 concentration in solution. Each number is expressed in Table 6 as percentage of the original solution concentration of 5 mg/ml.
To more fully explore the concentration dependence of GI147211 precipitation, 5 mg/ml solutions of the drug were prepared as described in Example 3 and titrated with increasing concentrations of the counterion excipients sulfate, citrate, phosphate and chloride. The solutions of GI147211 and counterion were allowed to stand for 15 to 20 minutes, then centrifuged at 3600 rpm for 10 minutes to isolate the precipitate and the supernatants were assayed as described in Example 3.
In a separate study, precipitation of the camptothecin GI147211 was examined at the predicted concentration in the interior of the liposome (approx. 40 mg/ml camptothecin GI147211) after loading in the presence of 50 mM ammonium sulfate.

[8] = system: ES-2 (ovarian carcinoma); test: 3H-thymidine incorporation cytotoxicity assay, ES-2; format: cell-based, human; settings: Homo sapiens; ES-2, 42 h; read-out: Median IC50
Method: as §1, §2

[9] = system: MDA-MB-468 (Breast); test: 3H-thymidine incorporation cytotoxicity assay, MDA-MB-468; format: cell-based, human; settings: Homo sapiens, MDA-MB-468, 42 h; read-out: Median IC50
Method: as §1, §2

[10] = Plasma pharmacokinetics in mice, routes of administration; format: in vivo; settings: for Vd: read-out: Vss
Method: Pharmacokinetic studies were carried out on various liposomal formulations of GI147211 in rats and mice by IV bolus administration. Plasma samples were precipitated with acetonitrile and the supematant for each sample was analyzed by reverse phase HPLC using isocratic elution and monitoring fluorescence. […] Concentration values were determined for unknown samples and quality control samples based on interpolation using a linear fit of the standard samples. In each study the average plasma concentration at each time point was calculated and utilized in the pharmacokinetic analysis. Noncompartmental analysis were carried out using WinNonlin™ (Standard Edition, version 1.5 ©, Scientific Consulting, Inc.) and the following parameters were calculated: the maximum concentration extrapolated at zero time (Cmax), the area under the curve from zero to infinite time (AUC total), the terminal phase half life (t½), the clearance rate (C1), and the volume of distribution at steady state (Vss).
Animals received a 1 mg/kg dose by intravenous (I.V.) intraperatoneal (I.P.) or subcutaneous administration and plasma samples were collected over 24 hours.

[11] = system: KBV Head/Neck Tumor MDR +; format: in vivo
Method: as §3, §4

[12] = 5 mg/ml GI147211, pH 2±0.5, aspartate 50 mM
[13] = 5 mg/ml GI147211, pH 2±0.5, chloride 100 mM
[14] = 5 mg/ml GI147211, pH 2±0.5, citrate 20 mM
[15] = 5 mg/ml GI147211, pH 2±0.5, citrate 50 mM
[16] = 5 mg/ml GI147211, pH 2±0.5, formate 50 mM
[17] = 5 mg/ml GI147211, pH 2±0.5, lactobionate 50 mM
[18] = 5 mg/ml GI147211, pH 2±0.5, phosphate 100 mM
[19] = 5 mg/ml GI147211, pH 2±0.5, succinate 500 mM
[20] = 5 mg/ml GI147211, pH 2±0.5, sucrose 300 mM
[21] = 5 mg/ml GI147211, pH 2±0.5, sulfate 20 mM
[22] = 5 mg/ml GI147211, pH 2±0.5, sulfate 50 mM
[23] = approx. 40 mg/ml GI147211, 50 mM ammonium sulfate
[24] = mouse, plasma, iv, 1 mg/kg, 1 mg/kg IV bolus
[25] = mouse, plasma, iv, 1 mg/kg, I.V.

## CCC1(O)C(=O)OCc2c1cc1n(c2=O)Cc2c-1nc1cc3c(cc1c2CN1CCN(C)CC1)OCCO3 (stereo in doubt) [GI147211, 7-(4-methylpiperazinomethylene)-10,11-ethylenedioxy-20(S)-camptothecin dihydrochloride]
[1]
  IC50: 3.11 ng/mL
[2]
  IC50: 0.0866 ng/mL
[3]
  IC50: 2.36 ng/mL
[4]
  IC50: 111 ng/mL
[5]
  IC50: 1.61 ng/mL
[6]; 6 mg/kg iv
  Log 10 Cell Kill: 0.87
  T-C (time to reach 1,000% Tumor Volume, treated vs control): 9 days
  % TGI: 54%
[6]; 9 mg/kg iv
  Log 10 Cell Kill: 1.64
  T-C (time to reach 1,000% Tumor Volume, treated vs control): 17 days
  % TGI: 73%
[7]; [12]
  % GI147211 Precipitated: 57.8%
  % GI147211 Remaining in Solution: 42.2%
[7]; [13]
  % GI147211 Precipitated: 85.2%
  % GI147211 Remaining in Solution: 14.8%
[7]; [14]
  % GI147211 Precipitated: 98.8%
  % GI147211 Remaining in Solution: 1.2%
[7]; [15]
  % GI147211 Precipitated: 99.1%
  % GI147211 Remaining in Solution: 0.9%
[7]; [16]
  % GI147211 Precipitated: 64.7%
  % GI147211 Remaining in Solution: 35.3%
[7]; [17]
  % GI147211 Precipitated: 6.2%
  % GI147211 Remaining in Solution: 93.8%
[7]; [18]
  % GI147211 Precipitated: 82.3%
  % GI147211 Remaining in Solution: 17.7%
[7]; [19]
  % GI147211 Precipitated: 98.8%
  % GI147211 Remaining in Solution: 1.2%
[7]; [20]
  % GI147211 Precipitated: 8.2%
  % GI147211 Remaining in Solution: 91.8%
[7]; [21]
  % GI147211 Precipitated: 97.9%
  % GI147211 Remaining in Solution: 2.1%
[7]; [22]
  % GI147211 Precipitated: 98.1%
  % GI147211 Remaining in Solution: 1.9%
[7]; [23]
  drug precipitated: ~99%
  remained in solution: 0.5%
[7]; chloride and phosphate
  drug precipitated: greater than 82%
[7]; formate and aspartate
  drug precipitated: greater than 55%
[7]; sucrose and lactobionate
  drug precipitated: less than 10%
[7]; sulfate, citrate, and succinate
  drug precipitated: greater than 97%
[8]
  IC50: 0.489 ng/mL
[9]
  IC50: 6.42 ng/mL
[10]; 1 mg/kg IV bolus
  AUC (total): 140 ng·h/mL
[10]; 1 mg/kg, I.P.
  AUC (total): 47 ng·h/mL
[10]; 1 mg/kg, I.V.
  AUC (total): 140 ng·h/mL
  Cmax: 80 ng/mL
[10]; 1 mg/kg, Sub. Q
  AUC (total): 55 ng·h/mL
[10]; mouse, plasma, 1 mg/kg IV bolus, read-out: Cmax
  Cmax: 80 ng/mL
[10]; mouse, plasma, 1 mg/kg IV bolus, read-out: t½ (converted)
  half-life: 113 min
[10]; mouse, plasma, ip, 1 mg/kg, I.P.
  Tmax: 15 min
[10]; mouse, plasma, ip, 1 mg/kg, I.P., read-out: Cmax
  Cmax: 56 ng/mL
[10]; [24]
  clearance: 122 mL/min/kg
  Vd: 17.6 L/kg
[10]; [25]
  Tmax: 0 min
  clearance: 122 mL/min/kg
  Vd: 17.6 L/kg
[10]; mouse, plasma, subcutaneous, 1 mg/kg, Sub. Q
  Tmax: 15 min
[10]; mouse, plasma, subcutaneous, 1 mg/kg, Sub. Q, read-out: Cmax
  Cmax: 42 ng/mL
[11]; KBV, 9 mg/kg iv, QD7 × 3
  Log 10 Cell Kill: 0.125
  T-C (time to reach 1,000% Tumor Volume, treated vs control): 2 days
[11]; KBV, 9 mg/kg iv, QD7 × 3, day 18
  % TGI: 11%
[11]; identical dose and schedule
  activity in the MDR+ tumor model KBV: essentially inactive
